Reference: patent US11912693B2, “Compounds for modulating S1P1 activity and methods of using the same” (TREVENA, INC., priority 2017, dated 2024)

Legend:
[1] = target: T1, human sphingosine-1-phosphate receptor 1 (S1P1) (Homo sapiens (Human), UniProt P21453); experiment: Inhibition of cAMP production (HTRF cAMP HiRange), S1P1 CHO-K1 cells; format: cell-based; conditions: for hS1P1 cAMP pEC50: inhibition of cAMP production, S1P1 CHO-K1 cells; for Emax: CHO-K1, efficacy (SPAN) normalized to fingolimod, read-out: hS1P1 cAMP SPAN
Experimental: (§1) Stable clonal Chinese hamster ovary K1 (CHO-K1) cells co-expressing EA-β-arrestin2 and the human sphingosine-1-phosphate receptor 1 (NM_001400, S1P1) with a C-terminal Prolink™ tag were purchased from DiscoverX corporation (Cat #: 93-0207C2).
(§2) Cell lines were cultured in AssayComplete™ Media 6 (DiscoverX Corporation, Cat #: 920018GF2) at 37° C. and 5% CO2 in a humidified CO2 and temperature-controlled incubator. To begin assay plating, cells were washed with dulbecco's phosphate buffered saline (CellGro, Cat #: 21-031-CV) and lifted from the culturing flask by incubation (37° C., 5 min) with CellStripper (Cellgro, Cat #: 25-056-CI). […] Plated cells were incubated overnight at 37° C. and 5% CO2 in a humidified CO2 and temperature-controlled incubator. Detecting Inhibition of cAMP Production
Agonist-promoted G-protein responses were determined by measuring changes in intracellular cAMP using the HTRF® cAMP HiRange kit (CisBio, Cat #: 62AM6PEJ) based on time-resolved fluorescence resonance energy transfer (TR-FRET) technology. […] Following a 30-minute incubation at 37° C. and 5% CO2 in a humidified CO2 and temperature-controlled incubator, the components of the cAMP HiRange kit were added as per the manufacturer's instructions. After an hour incubation at room temperature, plates were analyzed by a BMG PheraStar microplate reader.
(§3) The tables below include the efficacy of the compound as compared to a positive control, referred to as “SPAN”. These values are normalized to fingolimod, a known agonist of the sphingosine-1-phosphate 1 receptor. The tables also include potency values (pEC50) for modulating discrete receptor-mediated activities (inhibition of cAMP production and […] recruitment).
Target sequence in this assay (P21453 whole entry, looked up): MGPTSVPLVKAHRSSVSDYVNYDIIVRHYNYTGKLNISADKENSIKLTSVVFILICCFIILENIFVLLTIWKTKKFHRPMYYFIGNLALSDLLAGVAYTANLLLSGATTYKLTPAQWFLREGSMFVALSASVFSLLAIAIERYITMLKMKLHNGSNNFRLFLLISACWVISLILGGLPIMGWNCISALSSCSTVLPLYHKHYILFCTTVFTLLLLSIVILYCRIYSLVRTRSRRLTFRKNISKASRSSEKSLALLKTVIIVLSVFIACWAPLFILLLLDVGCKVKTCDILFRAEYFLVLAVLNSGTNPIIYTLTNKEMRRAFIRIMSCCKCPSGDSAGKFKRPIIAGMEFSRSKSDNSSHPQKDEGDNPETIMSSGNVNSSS

[2] = target: T1, human sphingosine-1-phosphate receptor 1 (S1P1); experiment: β-Arrestin2 recruitment assay (PathHunter), S1P1 CHO-K1 cells; format: cell-based; conditions: for hS1P1 B-arrestin2 pEC50: β-arrestin2 recruitment, S1P1 CHO-K1 cells; for Emax: CHO-K1, efficacy (SPAN) normalized to fingolimod, read-out: hS1P1 B-arrestin2 SPAN
Experimental: as §1, §2
Target sequence in this assay (P21453 whole entry, looked up): as above
Target sequence in this assay (P32121 whole entry partner, looked up): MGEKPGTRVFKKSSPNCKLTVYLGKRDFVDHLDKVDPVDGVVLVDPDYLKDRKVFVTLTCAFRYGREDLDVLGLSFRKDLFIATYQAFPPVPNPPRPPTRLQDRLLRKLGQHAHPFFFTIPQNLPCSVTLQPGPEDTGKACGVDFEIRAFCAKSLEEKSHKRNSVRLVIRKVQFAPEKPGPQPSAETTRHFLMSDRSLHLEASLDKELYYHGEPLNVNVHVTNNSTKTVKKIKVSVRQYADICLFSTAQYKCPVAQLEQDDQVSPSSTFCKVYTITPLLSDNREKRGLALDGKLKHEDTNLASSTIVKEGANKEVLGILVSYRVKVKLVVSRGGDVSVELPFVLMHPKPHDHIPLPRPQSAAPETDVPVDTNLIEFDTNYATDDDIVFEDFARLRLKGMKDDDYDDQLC
Agonist-promoted β-arrestin2 recruitment to the sphingosine-1-phosphate 1 receptor was determined using the β-arrestin PathHunter®) Detection kit (DiscoverX Corporation, Cat #: 93-0001). […] In cells that stably express these fusion proteins, stimulation with a cognate agonist results in the interaction of […] and the Prolink™-tagged GPCR. This allows the complementation of the two β-galactosidase fragments and results in the formation of a functional enzyme with β-galactosidase activity. […] Following a 60 minute incubation at 37° C. and 5% CO2 in a humidified CO2 and temperature-controlled incubator, the components of the β-arrestin PathHunter® Detection kit were added as per the manufacturer's instructions. After an hour incubation at room temperature, plates were analyzed by a BMG PheraStar microplate reader.
as §3

Structure (SMILES)	hS1P1 cAMP pEC50 [1]	hS1P1 B-arrestin2 pEC50 [2]	Emax [1] [%]	Emax [2] [%]
C=CCn1nnc2cc(-c3noc(-c4ccccc4Br)n3)ccc21 [Compound 42, 3-(1-allyl-1H-benzo[d][1,2,3]triazol-5-yl)-5-(2-bromophenyl)-1,2,4-oxadiazole]	<6.5	<5		
CC(C)n1nnc2cc(-c3noc(-c4ccccc4Br)n3)ccc21 [Compound 43, 5-(2-bromophenyl)-3-(1-isopropyl-1H-benzo[d][1,2,3]triazol-5-yl)-1,2,4-oxadiazole]	>6.5	>5		
Cc1nccnc1-c1nc(-c2ccc3c(c2)nnn3C(C)C)no1 [Compound 44, 3-(1-isopropyl-1H-benzo[d][1,2,3]triazol-5-yl)-5-(3-methylpyrazin-2-yl)-1,2,4-oxadiazole]	<6.5	<5		
Brc1ccccc1-c1nc(-c2ccc3c(c2)nnn3Cc2ccccn2)no1 [Compound 45, 5-(2-bromophenyl)-3-(1-(pyridin-2-ylmethyl)-1H-benzo[d][1,2,3]triazol-5-yl)-1,2,4-oxadiazole]	<6.5	<5		
Cc1ccsc1-c1noc(-c2ccc3c(c2)nnn3C2CCCC2)n1 [Compound 46, 1-cyclopentyl-5-[3-(3-methylthiophen-2-yl)-1,2,4-oxadiazol-5-yl]-1H-1,2,3-benzotriazole]	>6.5	>5		
CSc1cccc(-c2nc(-c3ccc4c(c3)nnn4C3CCCC3)no2)c1 [Compound 47, 3-(1-cyclopentyl-1H-benzo[d][1,2,3]triazol-5-yl)-5-(3-(methylthio)phenyl)-1,2,4-oxadiazole]	<6.5	<5		
Brc1ccccc1-c1nc(-c2ccc3c(c2)nnn3Cc2ccncc2)no1 [Compound 48, 5-(2-bromophenyl)-3-(1-(pyridin-4-ylmethyl)-1H-benzo[d][1,2,3]triazol-5-yl)-1,2,4-oxadiazole]	<6.5	<5		
CC(C)n1nnc2cc(-c3nc(-c4ccc(COc5ccccc5)cc4)no3)ccc21 [Compound 49, 5-{3-[4-(phenoxymethyl)phenyl]-1,2,4-oxadiazol-5-yl}-1-(propan-2-yl)-1H-1,2,3-benzotriazole]	<6.5	<5		
Cc1oc(-c2ccc3c(c2)nnn3C(C)C)nc1-c1ccc(Cl)cc1 [Compound 50, 5-[4-(4-chlorophenyl)-5-methyl-1,3-oxazol-2-yl]-1-(propan-2-yl)-1H-1,2,3-benzotriazole]	<6.5	<5	< 75	< 75
COc1cnc(-c2nc(-c3ccc4c(c3)nnn4C(C)C)no2)cn1 [Compound 51, 3-(1-isopropyl-1H-benzo[d][1,2,3]triazol-5-yl)-5-(5-methoxypyrazin-2-yl)-1,2,4-oxadiazole]	<6.5	<5		
Brc1ccccc1-c1nc(-c2ccc3c(c2)nnn3Cc2ccccc2)no1 [Compound 52, 3-(1-benzyl-1H-benzo[d][1,2,3]triazol-5-yl)-5-(2-bromophenyl)-1,2,4-oxadiazole]	<6.5	<5		
CC(C)n1nnc2cc(-c3nc(-c4ccc(OCc5ccccc5)cc4)no3)ccc21 [Compound 53, 5-{3-[4-(benzyloxy)phenyl]-1,2,4-oxadiazol-5-yl}-1-(propan-2-yl)-1H-1,2,3-benzotriazole]	<6.5	<5	< 75	< 75
CCCn1nnc2cc(-c3nc(-c4cccc(C)c4)no3)ccc21 [Compound 54, 5-[3-(3-methylphenyl)-1,2,4-oxadiazol-5-yl]-1-propyl-1H-1,2,3-benzotriazole]	<6.5	<5		
CC(C)C(c1ccccc1)c1noc(-c2ccc3c(c2)nnn3C(C)C)n1 (centres unmarked) [Compound 56, 5-[3-(2-methyl-1-phenylpropyl)-1,2,4-oxadiazol-5-yl]-1-(propan-2-yl)-1H-1,2,3-benzotriazole]	<6.5	<5		
O=C1CCOc2ccc(-c3nc(-c4ccncc4)no3)cc21 [Compound 57, 6-[3-(pyridin-4-yl)-1,2,4-oxadiazol-5-yl]-3,4-dihydro-2H-1-benzopyran-4-one]	<6.5	<5		
CC1(C)CCC2(CC1)CC(=O)c1cc(-c3nc(-c4cccnc4)no3)ccc1O2 [Compound 58, 4′,4′-dimethyl-6-[3-(pyridin-3-yl)-1,2,4-oxadiazol-5-yl]-3,4-dihydrospiro[1-benzopyran-2,1′-cyclohexane]-4-one]	<6.5	<5	< 75	< 75
C=CCNc1ccc(-c2nc(-c3ccc4c(c3)CCC(=O)N4)no2)cc1C#N [Compound 61, 2-(allylamino)-5-(3-(2-oxo-1,2,3,4-tetrahydroquinolin-6-yl)-1,2,4-oxadiazol-5-yl)benzonitrile]	>6.5	>5	> 75	> 75
CC(C)Oc1ccccc1-c1noc(-c2ccc3c(c2)nnn3C(C)C)n1 [Compound 62, 3-(2-isopropoxyphenyl)-5-(1-isopropyl-1H-benzo[d][1,2,3]triazol-5-yl)-1,2,4-oxadiazole]	<6.5	<5		
CC(C)n1nnc2cc(-c3ncc(-c4ccccc4F)s3)ccc21 [Compound 63, 5-(2-fluorophenyl)-2-(1-isopropyl-1H-benzo[d][1,2,3]triazol-5-yl)thiazole]	>6.5	<5		
CC(C)n1nnc2cc(-c3noc(-c4cccc(F)c4)n3)ccc21 [Compound 64, 5-(3-fluorophenyl)-3-(1-isopropylbenzotriazol-5-yl)-1,2,4-oxadiazole]	>6.5	<5		
CCC1(CC)CC(=O)c2cc(-c3nc(-c4ccc(OC)cc4)no3)ccc2O1 [Compound 65, 2,2-diethyl-6-(3-(4-methoxyphenyl)-1,2,4-oxadiazol-5-yl)chroman-4-one]	<6.5	<5	< 75	< 75
CCC1(CC)CC(=O)c2cc(-c3nc(-c4ccccc4C)no3)ccc2O1 [Compound 66, 2,2-diethyl-6-(3-(o-tolyl)-1,2,4-oxadiazol-5-yl)chroman-4-one]	>6.5	>5	> 75	> 75
